In paper PMC12122380 (2025):
One block for each compound: values may come before it.

Tests used:
[1] = system: 58 nt (Liu) self-biotinylating ribozyme (RNA, ribozyme) GGCCGCUCCAGAAGAGGGCCCCCUUGCCCGUUAUCGGGGGCUAGGCUCGAUGUCGGCC; assay: RP-HPLC of covalent adduct; settings: K+ 100 mM, Mg2+ 5 mM, 50 mM HEPES pH 7.4, 37 °C, 2.5 mM ligand
[2] = system: 58 nt (Liu) self-biotinylating ribozyme (RNA, ribozyme) GGCCGCUCCAGAAGAGGGCCCCCUUGCCCGUUAUCGGGGGCUAGGCUCGAUGUCGGCC; assay: PAGE, streptavidin blot of covalent adduct; settings: K+ 100 mM, Mg2+ 5 mM, 50 mM HEPES pH 7.4, 37 °C, 1 mM ligand, 5 h
[3] = system: Tt wt preQ1 RNA aptamer (RNA, riboswitch) CUGGGUCGCAGUAACCCCAGUUAACAAAACAAG; assay: AE-HPLC alkylation kinetics, Michaelis-Menten fit; settings: K+ (KCl); covalent; apparent; MES pH 6.0, 37 °C
[4] = system: Pepper (RNA, aptamer) GGCGCACUGGCGCUGCGCCUUCGGGCGCCAAUCGUAGCGUGUCGGCGCC; assay: AE-HPLC, FT-ICR mass spectrometry of covalent adduct; settings: K+ 150 mM, Mg2+ 2 mM; covalent at G41; 50 mM MES pH 6.0, 37 °C; no crosslinking without Mg2+
[5] = system: 155 nt (Szostak) self-biotinylating ribozyme (RNA, ribozyme) GGAGGCACCACGGCUGGAUCCGGUUUAUUAUCAUGAGCCCGACUCGGGCAGCACUGUACAUAAGCUCGGAUGCCAUAGUUUAGACACUAUGGACGUAAAGCCCAUGCUAGGCAAAGACAUUGACUGCAUGAGCGCCGCCUUGGUCAUUAGGAUCG; assay: PAGE, streptavidin blot of covalent adduct; settings: K+ 100 mM, Mg2+ 5 mM, 50 mM HEPES pH 7.4, 37 °C, 1 mM or 50 µM ligand
[6] = system: Pepper (RNA, aptamer) GGCGCACUGGCGCUGCGCCUUCGGGCGCCAAUCGUAGCGUGUCGGCGCC; assay: AE-HPLC of covalent adduct; settings: K+ 150 mM, Mg2+ 2 mM, 50 mM MES pH 6.0, 15% DMSO, 37 °C, 50 µM ligand
[7] = system: Tt C15U preQ1 RNA aptamer (RNA, riboswitch) CUGGGUCGCAGUAAUCCCAGUUAACAAAACAAG; assay: AE-HPLC of covalent adduct; settings: K+ 100 mM, Mg2+ 2 mM, 50 mM MES pH 6.0, 37 °C, 48 h, 125 µM ligand
[8] = system: Pepper (RNA, aptamer) GGCGCACUGGCGCUGCGCCUUCGGGCGCCAAUCGUAGCGUGUCGGCGCC; assay: fluorescence emission; settings: K+ 100 mM, Mg2+ 2 mM; 50 mM MES pH 6.0; 0.5 µM RNA, 0.5 µM HBC; noncovalent
[9] = system: Pepper (RNA, aptamer) GGCGCACUGGCGCUGCGCCUUCGGGCGCCAAUCGUAGCGUGUCGGCGCC; assay: covalent adduct formation, fluorescence; settings: K+, Mg2+

Compound: O=C1N[C@H]2[C@H](CS[C@H]2CCCCC(=O)OCCOCCCCBr)N1
- binding [1]: yes
- binding [2]: yes

Compound: Nc1nc(N)c2c(CNCCCBr)c[nH]c2n1
- KM [3]: 0.162 ± 0.016 µM

Compound: CN(CCCOS(C)(=O)=O)c1ccc(/C=C(\C#N)c2ccc(C#N)cc2)cc1
- binding [4]: yes

Compound: CN(CCCBr)c1ccc(/C=C(\C#N)c2ccc(C#N)cc2)cc1
- binding [6]: yes

Compound: Nc1nc2[nH]cc(CNCCCBr)c2c(=O)[nH]1
- binding [7]: yes

Other lines, results leading:

- binding [5]: yes
Compound: O=C(CI)NCCNC(=O)CCCC[C@@H]1SC[C@@H]2NC(=O)N[C@@H]21

- binding [8]: yes
Compound: CN(CCO)c1ccc(/C=C(\C#N)c2ccc(C#N)cc2)cc1

- binding [9]: yes
Compound: C=Cc1ccc(/C(C#N)=C/c2ccc(N(C)CCCOS(C)(=O)=O)cc2)cc1
